The target in assay [1] is T1, human CB2R (Homo sapiens, UniProt P34972).
T1 construct: host or cells: HEK-293T, transient transfection, living cells
Kind of assay: Forskolin-induced intracellular cAMP determination in HEK-293T cells expressing CB2R. Type of assay: cell-based.

The target in assay [2] is T1, human CB2R. The assay can be described thus: HTRF (Tag-lite) saturation binding of red CB2R ligand in living HEK-293T cells expressing SNAP-CB2R.
Assay [3] has as its target T1, human CB2R. The assay can be described thus: HTRF (Tag-lite) competition binding of red CB2R ligand in living HEK-293T cells expressing SNAP-CB2R. The settings on record: 100 nM red CB2R ligand, low nanomolar CBD concentrations.
Another assay deals with T2, human GPR55 (Homo sapiens, UniProt Q9Y2T6).
T2 construct: expressed in transfected cells; host or cells: HEK-293T, transient transfection
T2 sequence (Q9Y2T6 whole entry): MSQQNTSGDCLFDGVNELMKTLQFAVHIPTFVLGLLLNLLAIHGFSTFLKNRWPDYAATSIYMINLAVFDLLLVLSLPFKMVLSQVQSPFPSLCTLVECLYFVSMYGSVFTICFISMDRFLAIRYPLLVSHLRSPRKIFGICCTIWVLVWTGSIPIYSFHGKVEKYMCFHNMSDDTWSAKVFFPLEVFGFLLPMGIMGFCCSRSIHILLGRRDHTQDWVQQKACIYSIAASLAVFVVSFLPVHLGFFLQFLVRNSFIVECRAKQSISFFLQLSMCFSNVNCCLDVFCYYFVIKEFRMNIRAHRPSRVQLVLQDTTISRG
Kind of assay: Forskolin-induced intracellular cAMP determination in HEK-293T cells expressing GPR55. In kind it is cell-based. The procedure:
Two hours before initiating the experiment, growth medium was replaced by serum-free DMEM. Then, HEK-293T cells transiently expressing CB2R or GPR55 were detached and resuspended in growing medium containing 50 μM zardaverine and plated in 384-well microplates (2,500 cells/well), pretreated (15 min) with the corresponding antagonists—or vehicle—and stimulated with agonists (15 min) before adding 0.5 μM forskolin or vehicle. Readings were performed after 15 min of incubation at 25°C. HTRF measures were performed using the Lance Ultra cAMP kit (PerkinElmer, Waltham, MA, United States). Fluorescence at 665 nm was analyzed on a PHERAstar Flagship microplate reader equipped with an HTRF optical module (BMG Lab Technologies, Offenburg, Germany).

T1 sequence (P34972 whole entry): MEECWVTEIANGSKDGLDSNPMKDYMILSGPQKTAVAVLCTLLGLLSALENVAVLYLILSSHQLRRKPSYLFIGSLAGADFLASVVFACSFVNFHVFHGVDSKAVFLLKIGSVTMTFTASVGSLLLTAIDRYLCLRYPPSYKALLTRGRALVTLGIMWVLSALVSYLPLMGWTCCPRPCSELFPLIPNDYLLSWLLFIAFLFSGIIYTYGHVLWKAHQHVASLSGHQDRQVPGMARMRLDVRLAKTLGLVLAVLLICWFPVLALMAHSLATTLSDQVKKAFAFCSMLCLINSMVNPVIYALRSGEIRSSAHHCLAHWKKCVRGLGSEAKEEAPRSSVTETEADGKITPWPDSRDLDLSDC

In the case of `CCCC(C)(C)c1ccc2c(c1)OC(C)(C)[C@@H]1CC=C(C)C[C@@H]21` [JWH133], the “Agonist-induced reduction in cAMP” value at human CB2R [1] (100 nM JWH133, data given in percentage of the 500 nM forskolin-induced cAMP concentration) is 31 ± 4.

Consider SR144528, for which the “effect on maximum binding (Bmax) of red CB2R ligand” value on human CB2R [2] was “reduced Bmax values”.

On to `C=C(C)[C@@H]1CCC(C)=C[C@H]1c1c(O)cc(CCCCC)cc1O` [CBD, cannabidiol], for which the “reduction of fluorescent agonist binding” value on human CB2R [3] is reported as “circa 25%”. Also, at human GPR55 (100 nM JWH133, HEK-293T transiently transfected with GPR55), the “cAMP response to combined treatment with CBD and JWH133” value is “not significantly different than that achieved by CBD alone”. Besides, at human GPR55 (HEK-293T cells expressing human GPR55), the “cAMP signal of compound alone” value is “results were similar to those in cells expressing the CB2R”. For the same compound, the “G-protein-coupled signal (cAMP) of compound alone” value on human CB2R [1] (concentration range 1–1,000 nM, no agonist, HEK-293T cells expressing human CB2R) is on record as “did not significantly engage any G-protein-coupled signal”.

For the origin of these results see publication PMC5660261 (Frontiers in Pharmacology, 2017).
